How the values were obtained:
[1] = test system: S. aureus DSM 20231; test: Bliss interaction score (quartile over a dose matrix) (fitness difference); higher = more antagonism (negative = synergy)
Method in brief: (§1)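 Fitness was OD595 at entry into stationary phase divided by the plate's robust no-drug mean and capped at 1; single-drug fitness was inferred from combination data. The Bliss score is observed minus expected (product) fitness, summarised by quartiles over technical, biological and donor/recipient replicates.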

[2] = test system: S. pneumoniae D39V; test: as above
Method in brief: as §1

[3] = test system: B. subtilis 168; test: as above
Method in brief: as §1

[4] = test system: S. aureus Newman; test: as above
Method in brief: as §1

[5] = test system: S. aureus DSM 20231; test: fitness (endpoint OD595 vs no drug) (fraction); higher = more growth
Method in brief: (§2)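 Cultures at OD595 0.01 were dispensed into 384-well plates in TSB, LB Lennox or CY and incubated at 37 °C. Every 30 min for 14 h, OD595 was read and corrected by the first reading. Fitness is the optical density at entry into stationary phase relative to the robust mean of no-drug control wells, capped at 1.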

[6] = test system: S. pneumoniae D39V; test: as above
Method in brief: as §2

[7] = test system: B. subtilis 168; test: as above
Method in brief: as §2

[8] = test system: S. aureus Newman; test: as above
Method in brief: as §2
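Wherever Bliss interaction score (quartile over a dose matrix) is given: first quartile when negative (synergy) and third quartile when positive (antagonism).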

COc1ccc(C[C@H](N)C(=O)N[C@H]2[C@@H](O)[C@H](n3cnc4c(N(C)C)ncnc43)O[C@@H]2CO)cc1 [Puromycin] + CN1C2=CC=CC=C2N=C3C1=CC=CC3=O [Pyocyanin]
Conditions	Bliss interaction score
[1]	0.0671
[2]	-0.117
[3]	-0.0765
[4]	0.104

fitness
Conditions	first compound 0.39 µg/mL	first compound 0.78 µg/mL	first compound 1 µg/mL	first compound 1.56 µg/mL	first compound 2 µg/mL	first compound 4 µg/mL
[5], partner 1.25 µg/mL	0.86	0.945	–	≥ 1	–	–
[5], partner 2.5 µg/mL	0.96	0.957	–	0.967	–	–
[5], partner 5 µg/mL	0.67	0.725	–	0.681	–	–
[6], partner 0.325 µg/mL	–	–	0.977	–	0.975	0.792
[6], partner 0.65 µg/mL	–	–	0.926	–	0.866	0.697
[7], partner 1.25 µg/mL	0.879	0.847	–	0.89	–	–
[7], partner 2.5 µg/mL	0.875	0.812	–	0.823	–	–
[7], partner 5 µg/mL	0.679	0.666	–	0.656	–	–
[8], partner 1.25 µg/mL	0.907	0.902	–	0.918	–	–
[8], partner 2.5 µg/mL	0.785	0.824	–	0.845	–	–
[8], partner 5 µg/mL	0.476	0.44	–	0.417	–	–

one replicate
Conditions	fitness
[5], first compound 3.12 µg/mL, partner 1.25 µg/mL	0.946
[5], first compound 3.12 µg/mL, partner 2.5 µg/mL	0.844
[5], first compound 3.12 µg/mL, partner 5 µg/mL	0.482
[5], first compound 6.24 µg/mL, partner 1.25 µg/mL	0.756
[5], first compound 6.24 µg/mL, partner 2.5 µg/mL	0.632
[5], first compound 6.24 µg/mL, partner 5 µg/mL	0.248
[6], first compound 1 µg/mL, partner 1.3 µg/mL	0.394
[6], first compound 2 µg/mL, partner 1.3 µg/mL	0.34
[6], first compound 4 µg/mL, partner 1.3 µg/mL	0.294

COc1cccc2c1C(=O)c1c(O)c3c(c(O)c1C2=O)C[C@@](O)(C(=O)CO)C[C@@H]3O[C@H]1C[C@H](N)[C@H](O)[C@H](C)O1 [Doxorubicin] + C[n+]1ccc(-c2cc[n+](C)cc2)cc1 [Paraquat]
Conditions	Bliss interaction score
[1]	-0.0686
[2]	0.0503
[3]	0.105
[4]	-0.052

fitness
Conditions	first compound 0.25 µg/mL	first compound 0.5 µg/mL	first compound 0.625 µg/mL	first compound 1 µg/mL	first compound 1.25 µg/mL	first compound 2.5 µg/mL
[5], partner 1.25 µg/mL	–	–	0.858	–	0.882	0.782
[5], partner 2.5 µg/mL	–	–	0.828	–	0.835	0.761
[5], partner 5 µg/mL	–	–	0.823	–	0.8	0.744
[6], partner 1.5 µg/mL	0.98	0.992	–	0.9	–	–
[6], partner 3 µg/mL	0.936	0.979	–	0.886	–	–
[6], partner 6 µg/mL	0.916	0.946	–	0.872	–	–
[7], partner 1.25 µg/mL	–	–	≥ 1	–	0.892	0.686
[7], partner 2.5 µg/mL	–	–	0.924	–	0.861	0.656
[7], partner 5 µg/mL	–	–	0.862	–	0.876	0.595
[8], partner 1.25 µg/mL	–	–	0.712	–	0.742	0.732
[8], partner 2.5 µg/mL	–	–	0.715	–	0.792	0.759
[8], partner 5 µg/mL	–	–	0.744	–	0.743	0.761

COc1ccc(C[C@H](N)C(=O)N[C@H]2[C@@H](O)[C@H](n3cnc4c(N(C)C)ncnc43)O[C@@H]2CO)cc1 [Puromycin] + CN[C@@H]1[C@H](O)[C@H](NC)[C@H]2O[C@@]3(O)C(=O)C[C@@H](C)O[C@H]3O[C@@H]2[C@H]1O [Spectinomycin]
Conditions	Bliss interaction score
[1]	0.0575
[2]	0.0718
[3]	0.0392
[4]	0.0745

fitness
Conditions	first compound 0.39 µg/mL	first compound 0.78 µg/mL	first compound 1 µg/mL	first compound 1.56 µg/mL	first compound 2 µg/mL	first compound 4 µg/mL
[5], partner 4 µg/mL	0.959	0.943	–	0.965	–	–
[5], partner 8 µg/mL	0.957	0.998	–	0.956	–	–
[5], partner 16 µg/mL	0.943	0.884	–	0.888	–	–
[6], partner 4 µg/mL	–	–	0.931	–	0.951	0.772
[6], partner 8 µg/mL	–	–	0.877	–	0.892	0.728
[7], partner 2 µg/mL	0.951	0.94	–	0.979	–	–
[7], partner 4 µg/mL	0.948	0.952	–	0.963	–	–
[7], partner 8 µg/mL	0.859	0.881	–	0.848	–	–
[8], partner 4 µg/mL	0.912	0.922	–	0.964	–	–
[8], partner 8 µg/mL	0.962	0.95	–	0.937	–	–
[8], partner 16 µg/mL	0.914	0.904	–	0.873	–	–

one replicate
Conditions	fitness
[5], first compound 0.39 µg/mL, partner 32 µg/mL	0.741
[5], first compound 0.39 µg/mL, partner 64 µg/mL	0.11
[5], first compound 0.78 µg/mL, partner 32 µg/mL	0.802
[5], first compound 0.78 µg/mL, partner 64 µg/mL	0.172
[5], first compound 1.56 µg/mL, partner 32 µg/mL	0.757
[5], first compound 1.56 µg/mL, partner 64 µg/mL	0.142
[5], first compound 3.12 µg/mL, partner 4 µg/mL	0.923
[5], first compound 3.12 µg/mL, partner 8 µg/mL	0.948
[5], first compound 3.12 µg/mL, partner 16 µg/mL	0.794
[5], first compound 6.24 µg/mL, partner 4 µg/mL	0.629
[5], first compound 6.24 µg/mL, partner 8 µg/mL	0.347
[5], first compound 6.24 µg/mL, partner 16 µg/mL	0.183
[6], first compound 1 µg/mL, partner 16 µg/mL	0.867
[6], first compound 2 µg/mL, partner 16 µg/mL	0.863
[6], first compound 4 µg/mL, partner 16 µg/mL	0.613
[8], first compound 0.39 µg/mL, partner 32 µg/mL	0.664
[8], first compound 0.39 µg/mL, partner 64 µg/mL	0.15
[8], first compound 0.78 µg/mL, partner 32 µg/mL	0.618
[8], first compound 0.78 µg/mL, partner 64 µg/mL	0.0783
[8], first compound 1.56 µg/mL, partner 32 µg/mL	0.569
[8], first compound 1.56 µg/mL, partner 64 µg/mL	0.0656

Cc1ncc([N+](=O)[O-])n1CCO [Metronidazole] + COc1ccc(C[C@H](N)C(=O)N[C@H]2[C@@H](O)[C@H](n3cnc4c(N(C)C)ncnc43)O[C@@H]2CO)cc1 [Puromycin]
Conditions	Bliss interaction score
[1]	0.0499
[2]	0.129
[3]	-0.0368
[4]	0.0534

fitness
Conditions	first compound 0.625 µg/mL	first compound 1.073 µg/mL	first compound 1.25 µg/mL	first compound 2.145 µg/mL	first compound 2.5 µg/mL	first compound 4.29 µg/mL
[5], partner 0.39 µg/mL	0.997	–	≥ 1	–	≥ 1	–
[5], partner 0.78 µg/mL	≥ 1	–	≥ 1	–	≥ 1	–
[5], partner 1.56 µg/mL	≥ 1	–	≥ 1	–	≥ 1	–
[6], partner 1 µg/mL	–	≥ 1	–	0.875	–	0.96
[6], partner 2 µg/mL	–	0.973	–	0.904	–	0.914
[6], partner 4 µg/mL	–	0.874	–	0.836	–	0.88
[7], partner 0.39 µg/mL	0.936	–	0.945	–	0.961	–
[7], partner 0.78 µg/mL	0.953	–	0.931	–	0.937	–
[7], partner 1.56 µg/mL	0.946	–	0.895	–	0.864	–
[8], partner 0.39 µg/mL	0.902	–	0.998	–	≥ 1	–
[8], partner 0.78 µg/mL	0.968	–	≥ 1	–	≥ 1	–
[8], partner 1.56 µg/mL	≥ 1	–	≥ 1	–	≥ 1	–

one replicate
Conditions	fitness
[5], first compound 0.625 µg/mL, partner 3.12 µg/mL	≥ 1
[5], first compound 0.625 µg/mL, partner 6.24 µg/mL	0.756
[5], first compound 1.25 µg/mL, partner 3.12 µg/mL	0.957
[5], first compound 1.25 µg/mL, partner 6.24 µg/mL	0.827
[5], first compound 2.5 µg/mL, partner 3.12 µg/mL	0.977
[5], first compound 2.5 µg/mL, partner 6.24 µg/mL	0.848
[6], first compound 1.25 µg/mL, partner 1 µg/mL	0.928
[6], first compound 1.25 µg/mL, partner 2 µg/mL	0.97
[6], first compound 1.25 µg/mL, partner 4 µg/mL	0.842
[6], first compound 2.5 µg/mL, partner 1 µg/mL	0.936
[6], first compound 2.5 µg/mL, partner 2 µg/mL	≥ 1
[6], first compound 2.5 µg/mL, partner 4 µg/mL	0.835
[6], first compound 5 µg/mL, partner 1 µg/mL	0.97
[6], first compound 5 µg/mL, partner 2 µg/mL	0.95
[6], first compound 5 µg/mL, partner 4 µg/mL	0.852
[8], first compound 0.781 µg/mL, partner 0.39 µg/mL	≥ 1
[8], first compound 0.781 µg/mL, partner 0.78 µg/mL	≥ 1
[8], first compound 0.781 µg/mL, partner 1.56 µg/mL	≥ 1
[8], first compound 1.562 µg/mL, partner 0.39 µg/mL	0.974
[8], first compound 1.562 µg/mL, partner 0.78 µg/mL	0.997
[8], first compound 1.562 µg/mL, partner 1.56 µg/mL	≥ 1
[8], first compound 3.124 µg/mL, partner 0.39 µg/mL	0.933
[8], first compound 3.124 µg/mL, partner 0.78 µg/mL	≥ 1
[8], first compound 3.124 µg/mL, partner 1.56 µg/mL	≥ 1

— the supplement of paper PMC10627819
